Measured values taken from patent US20100298256A1, “ANTIVIRAL COMPOUNDS” (priority 2007, published 2010).

Assays:
[1] = tested on: HCV replicon AVA5 (genotype 1b, subgenomic replicon); experiment: HCV replication in cell culture, AVA5 replicon line (blot hybridization of HCV RNA); assay type: cell-based; settings: AVA5 cultures, daily treatment for three days, normalized to β-actin RNA
Description: (§1) Antiviral activity of the test compounds was assessed (Okuse et al., 2005, Antivir. Res. 65:23) in the stably HCV replicating line, AVA5 (genotype 1b, subgenomic, replicon, Blight et al., 2000, Sci. 290: 1972) and APC 103 ((genotype 1a, genomic replicon). (ODE) phosphodiester ribavirin prodrug were added to dividing cultures daily for three days. Cultures generally start the assay at 30-50% confluence and reach confluence during the last day of treatment. Intracellular HCV RNA levels and cytotoxicity (on 96 well plates) were used. A total of 12 untreated control cultures and triplicate cultures treated with α-interferon and 2′CmeC served as assay controls.
(§2) Triplicate cultures for HCV RNA levels were measured using a conventional blot hybridization method in which HCV RNA levels were normalized to the levels of β-actin RNA in each individual culture (Okuse et al., 2005, Antivir. Res. 65:23). Cytotoxicity was measured using an established neutral red dye uptake assay (Korba et al., 1992, Antivir. Res. 19:55, Okuse et al., Antivir. Res. 65:23). Test compounds were received as powders on dry ice and were dissolved in 100% tissue culture grade DMSO (Sigma, Inc.) at 10 mM. Aliquots of test compounds sufficient for one daily treatment were made in individual tubes and all material was stored at −20° C. […]

[2] = tested on: HCV replicon APC103 (genotype 1a, genomic replicon); experiment: HCV replication in cell culture, APC103 replicon line (blot hybridization of HCV RNA); assay type: cell-based; settings: APC103 cultures, daily treatment for three days, normalized to β-actin RNA
Description: as §1, §2

AVA5 and APC103 cultures = experiment: Cytotoxicity by neutral red dye uptake in the HCV replicon cultures; assay type: cell-based; settings: at the concentrations used for the antiviral analyses
Description: as §1, §2

[3] = CytoTox-ONE LDH release cytotoxicity assay, HepG2; assay type: cell-based; settings: human, HepG2 cells, read-out: TC50 (toxic concentration decreasing cell viability by 50%)
Description: (§3) CytoTox-ONE™ homogeneous membrane integrity assay kits (Promega) was used in the cytotoxicity studies. The assay measured the release of lactate dehyrodegenase (LDH) from cells with damaged membranes in a fluorometric, homogeneous format. […] The amount of fluorescence produced is proportional to the number of lysed cells. The cytotoxicity assessment assay was performed using a designed plate format […] for allocation of media, drug, cells, and virus in a 96 well plate. Six serially diluted concentrations of octadecyl-ethanediol-modified (ODE) phosphodiester Ribavirin prodrug was applied to the cells to derive the TC50 (toxic concentration of the drug decreasing the cell viability by 50%), TC90 (toxic concentration of the drug decreasing the cell viability by 90%) and TC95 (toxic concentration of the drug decreasing the cell viability by 95%) values.

HepG2 cells = experiment: CytoTox-ONE LDH release cytotoxicity assay, HepG2; assay type: cell-based
Description: as §3

[4] = CytoTox-ONE LDH release cytotoxicity assay, CEM; assay type: cell-based; settings: human, CEM cells, read-out: TC50 (toxic concentration decreasing cell viability by 50%)
Description: as §3

CEM cells = experiment: CytoTox-ONE LDH release cytotoxicity assay, CEM; assay type: cell-based
Description: as §3

[5] = CytoTox-ONE LDH release cytotoxicity assay, PBMC; assay type: cell-based; settings: PBMC cells, read-out: TC50 (toxic concentration decreasing cell viability by 50%)
Description: as §3

PBMC cells = experiment: CytoTox-ONE LDH release cytotoxicity assay, PBMC; assay type: cell-based
Description: as §3

influenza A [6] = tested on: influenza A
in vivo = settings: male, CD-1, mouse, plasma
Description: (§4) Plasma samples were collected at pre-dose, 1, 3, 6, 12, 24, 48, and 72 hours post-dose for P.O. treatment group and at pre-dose, 0.25, 2, 6, 12, 24, 48, and 72 hours post-dose for I.V. treatment group. All samples were collected within ±2 minutes of the targeted time.
(§5) Phenolphthalein was used as an internal standard. […] The samples were mixed by vortexing for 5 minutes, and centrifuged at 15,000 rpm at 4° C. for 10 minutes. A 150-μL aliquot of the supernatant was transferred to a 96-well plate and 10 uL of supernatant sample was injected into the LC-MS/MS system for analysis. In each analytical batch, PK samples were run concurrently with calibration standards (blank, 0, 5, 10, 25, 50, 100, 150, 300, and 500 ng/mL), and low, mid, high, and 10-fold dilution QC samples (15, 250, 400, and 2000 ng/m L).
A 1/Y^2 weighting factor was used.

in vitro = settings: dog
influenza A [7] = experiment: microbe, parasite or virus in culture; settings: MDCK, read-out: IC50 (minimum inhibitory drug concentration which reduces the CPE by 50%)
[8] = Pharmacokinetic study after single oral and intravenous administration in male CD-1 mice
Description: as §4, §5
A 1/Y^2 weighting factor was used.

Structure (SMILES): CCCCCCCCCCCCCCCCCCOCCOP(=O)(O)OC[C@H]1O[C@@H](n2cnc(C(N)=O)n2)[C@H](O)[C@@H]1O [(ODE) phosphodiester ribavirin prodrug, 1-(5-O-{hydroxy[2-(octadecyloxy)ethoxy]phosphoryl}-beta-D-ribofuranosyl)-1H-1,2,4-triazole-3-carboxamide]
- intracellular HCV RNA levels [1]: selective reductions in intracellular HCV RNA levels
- intracellular HCV RNA levels [2]: selective reductions in intracellular HCV RNA levels
- toxicity (significant = greater than 50% depression of the dye uptake levels observed in untreated cells) (AVA5 and APC103 cultures): No significant toxicity
- CC50 [3]: 13.2 µM
- TC90 (toxic concentration decreasing cell viability by 90%) (HepG2 cells): 28.32 µM
- TC95 (toxic concentration decreasing cell viability by 95%) (HepG2 cells): 41.69 µM
- CC50 [4]: 14.1 µM
- TC90 (toxic concentration decreasing cell viability by 90%) (CEM cells): 63.41 µM
- TC95 (toxic concentration decreasing cell viability by 95%) (CEM cells): 84.55 µM
- CC50 [5]: 111 µM
- TC90 (toxic concentration decreasing cell viability by 90%) (PBMC cells): 245 µM
- TC95 (toxic concentration decreasing cell viability by 95%) (PBMC cells): 272 µM
- therapeutic index (TI50 = TC50 / IC50) (influenza A [6]): greater than 210
- AUC(0-inf) (in vivo; iv, 5 mg/kg): 2660 ng·h/mL
- AUC(0-t) (in vivo; iv, 5 mg/kg): 2640 ng·h/mL
- Cmax (in vivo; iv, 5 mg/kg): 1960 ng/mL
- Tmax (in vivo; iv, 5 mg/kg): 0.25 h
- clearance (in vivo; iv, 5 mg/kg): 31.3 mL/min/kg
- half-life (in vivo; iv, 5 mg/kg): 1.13 h
- bioavailability (in vivo; oral, 30 mg/kg): 10.7%
- AUC(0-inf) (in vivo; po, 30 mg/kg): 1700 ng·h/mL
- AUC(0-t) (in vivo; po, 30 mg/kg): 1660 ng·h/mL
- Cmax (in vivo; po, 30 mg/kg): 407 ng/mL
- Tmax (in vivo; po, 30 mg/kg): 3 h
- CC50 (in vitro): 66.4 µM
- IC50 (influenza A [7]): < 0.316 µM
- plasma levels (below LLOQ) ([8]; IV 5 mg/kg, from 12 hours to 72 hours post-dose): < 5 ng/mL
- plasma levels (below LLOQ) ([8]; PO 30 mg/kg, from 24 hours to 72 hours post-dose): < 5 ng/mL

Structure (SMILES): NC(=O)c1ncn([C@@H]2O[C@H](CO)[C@@H](O)[C@H]2O)n1 [ribavirin, reference compound]
- toxicity (significant = greater than 50% depression of the dye uptake levels observed in untreated cells) (AVA5 and APC103 cultures): Significant toxicity
